Assay results: PMC10545790
≈ marks a conversion by molar mass, not a printed value. Where “and” joins values, the source holds several entries; their conditions need not be identical. Equal entries are not always repeated. Entries after “also recorded” stand apart in the source; their conditions may differ. Where two headings read alike, the source gives them in different places. Blank lines part the entries; values can stand above or below the molecule they belong to.

How the values were obtained:
[1] = system: human liver microsomes; test: Metabolic stability in human liver microsomes; conditions: human liver microsomes
[2] = Metabolic stability in human liver microsomes; conditions: both, human, liver microsomes (pooled)
[3] = Kinetic solubility in phosphate-buffered saline, pH 7.4
[4] = physchem; conditions: pH 7.4, logD (7.4): experimental distribution coefficient in n-octanol/phosphate-buffered saline
[5] = target: ABL1 kinase (Homo sapiens, UniProt P00519); conditions: for Luminescence, Raw Data (LUM): ADP-Glo
[6] = system: human liver microsomes; conditions: both, 2 µM, pH 7.4
[7] = Thermal and chemical stability; format: physicochemical
From the text: We also examined the thermal and chemical stability of the synthesized 2-oxabicyclo[2.2.2]octanes. As representative examples, we selected three molecules: isomeric acids 47, 54, and amine 52. All 2-oxabicyclo[2.2.2]octanes were crystalline solids that were stable in air. We stored them in stock at room temperature in closed vials and observed no changes according to ^1H NMR after one year. […] Treatment of the selected 2-oxabicyclo[2.2.2]octanes with aq. 1 M HCl, or aq.

[8] = Determination of pKa values (potentiometric titration); format: physicochemical; conditions: methanol-water (1:4) solution of NaCl; titration method; potentiometric acid-base titration at 25 °C in methanol-water (1:4), 150 mM NaCl; read-out: pKa (exp.)
Description: Data is obtained by the titration method. Para-methyl benzoic acid (83) is used as a reference. TEXT PRINTED IN THE PICTURE: 83: pKa (exp.): 4.5 ± 0.1 | 84: pKa (exp.): 5.6 ± 0.1 | 47: pKa (exp.): 4.4 ± 0.1 | 54: pKa (exp.): 4.1 ± 0.1 […]
Determination of pKa values
The tendency of a compound to donate proton is measured as its acid ionization constant (dissociation constant), or Ka. A more practical scale of representing acidity is pKa which is the negative logarithm of the Ka (pKa = -log Ka). pKa of a test article is determined by pH-metric method based on potentiometric acid-base titration at 25 °C. The test compounds are dissolved in acidified methanol-water (1:4) solution of NaCl (150 mM, pH 2) and slowly titrated with 0.3 M sodium hydroxide methanol-water (1:4) solution, while recording pH of the solution as a function of NaOH volume used during the titration (construction of the titration curve). Titration of acidified NaCl solution in absence of any compounds is used for blank plotting.5-8 Buffering capacity is calculated in each point of titration curve as the ratio of the NaOH flow (constant) to the pH rise velocity. The pKa value is determined from resulting plot of buffering capacity versus pH as the maximum of buffering capacity. pH-metric method allows to measure pKas in the range of approximately between 2 and 12. […]
meter, pHi®510 (Beckman Coulter, Canada; Cat# A58734). Data analysis was done using GraphPad […]
Sodium hydroxide (Enamine, Ukraine; CAS # 1310-73-2)
Sodium chloride BioXtra, ≥99.5% (AT) (Sigma-Aldrich, USA; Cat # S7653)
Hydrochloric acid (Enamine, Ukraine; CAS # 7647-01-0)
Disposable pipette tips (Eppendorf, German; Matrix and Finntip, Thermo, USA) Polypropylene graduated conical tubes, 50 mL (Kartell, Italy; Cat. # 84002) Polypropylene syringe (10 mL) with tubing (Hemoplast, Ukraine) […]
pH-meter, pHi®510 (Beckman Coulter, Canada; Cat# A58734)
Multichannel Electronic Pipettes 5-50 µL, 10-1000 µL (Thermo, USA)
Magnetic stirrer standard unit (IKA, USA)
Syringe Driver Mdl 100 (KDScientific, USA)

Chain of ABL1 kinase (P00519 whole entry): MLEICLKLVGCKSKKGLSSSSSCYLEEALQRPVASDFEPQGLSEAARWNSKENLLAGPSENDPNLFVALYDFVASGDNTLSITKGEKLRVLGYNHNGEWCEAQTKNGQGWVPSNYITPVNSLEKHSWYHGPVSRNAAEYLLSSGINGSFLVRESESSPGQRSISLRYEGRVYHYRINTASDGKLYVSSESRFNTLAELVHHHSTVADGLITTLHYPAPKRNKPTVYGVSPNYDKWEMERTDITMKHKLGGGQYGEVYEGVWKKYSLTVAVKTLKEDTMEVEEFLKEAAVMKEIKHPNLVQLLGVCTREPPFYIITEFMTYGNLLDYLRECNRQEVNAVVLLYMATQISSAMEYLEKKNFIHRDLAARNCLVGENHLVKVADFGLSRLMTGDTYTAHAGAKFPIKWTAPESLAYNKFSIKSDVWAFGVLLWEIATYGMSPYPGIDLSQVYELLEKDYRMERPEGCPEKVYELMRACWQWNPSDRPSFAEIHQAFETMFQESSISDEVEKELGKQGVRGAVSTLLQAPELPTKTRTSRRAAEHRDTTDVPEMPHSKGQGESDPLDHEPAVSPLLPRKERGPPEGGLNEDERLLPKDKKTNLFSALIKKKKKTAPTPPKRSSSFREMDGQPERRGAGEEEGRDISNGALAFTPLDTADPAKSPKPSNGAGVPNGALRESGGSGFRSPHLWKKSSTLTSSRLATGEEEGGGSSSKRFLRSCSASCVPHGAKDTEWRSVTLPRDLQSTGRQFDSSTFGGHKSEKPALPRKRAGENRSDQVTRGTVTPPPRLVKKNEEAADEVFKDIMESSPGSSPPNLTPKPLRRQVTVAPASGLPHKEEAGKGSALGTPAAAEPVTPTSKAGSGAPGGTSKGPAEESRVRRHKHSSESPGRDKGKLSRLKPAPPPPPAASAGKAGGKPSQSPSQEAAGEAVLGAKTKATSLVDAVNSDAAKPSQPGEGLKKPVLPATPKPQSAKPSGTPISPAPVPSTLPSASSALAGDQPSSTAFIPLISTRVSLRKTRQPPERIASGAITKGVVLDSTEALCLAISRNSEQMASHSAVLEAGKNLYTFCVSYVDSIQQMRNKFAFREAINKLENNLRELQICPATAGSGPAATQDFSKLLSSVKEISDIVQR

CLint [1]: 19
t1/2: half-time of a metabolic decomposition ([1]; 2 μM compound, NADPH, 37 °C): 1.45 h
k el at 2 µM ([2]; pH 7.4): 0.000133 s⁻¹
microsomal CLint at 2 µM ([2]; pH 7.4): 19 µL/min/mg
remaining at 40 min, 2 µM ([2]; pH 7.4, % Remaining without cofactor, Mean of 2, human liver microsomes, NADPH-cofactor system substituted with phosphate buffer): 118%
remaining at 7 min, 2 µM ([2]; pH 7.4, % Remaining, Mean of 2, human liver microsomes with NADPH, 7 min): 101%
remaining at 0.25 h, 2 µM ([2]; pH 7.4, % Remaining, Mean of 2, human liver microsomes with NADPH, 15 min): 98%
remaining at 25 min, 2 µM ([2]; pH 7.4, % Remaining, Mean of 2, human liver microsomes with NADPH, 25 min): 90%
remaining at 40 min, 2 µM ([2]; pH 7.4, % Remaining, Mean of 2, human liver microsomes with NADPH): 73%
half-life at 2 µM ([2]; pH 7.4, t1/2: half-time of a metabolic decomposition, human liver microsomes, 2 μM compound, NADPH, 37 °C): 1.45 h
solubility kinetic at 2 h ([3]; 25 °C, pH 7.4, aqueous buffer, kinetic from dmso stock): 389 µM (≈ 205 µg/mL)
logD [4]: 1.8
Luminescence, Raw Data (LUM) ([5]; 1st run, plate ABL1_CpdsTitr_Read1, single wells, compound 15 nM): 1058 and 1113 and 1791 and 1922
Luminescence, Raw Data (LUM) ([5]; 1st run, plate ABL1_CpdsTitr_Read1, single wells, compound 29 nM): 1154 and 1300 and 1938 and 1968
Luminescence, Raw Data (LUM) ([5]; 1st run, plate ABL1_CpdsTitr_Read1, single wells, compound 59 nM): 1819 and 1993 and 1840 and 1873
Luminescence, Raw Data (LUM) ([5]; 1st run, plate ABL1_CpdsTitr_Read1, single wells, compound 117 nM): 2012 and 2091 and 2063 and 1940
Luminescence, Raw Data (LUM) ([5]; 1st run, plate ABL1_CpdsTitr_Read1, single wells, compound 234 nM): 1243 and 1296 and 1230 and 1333
Luminescence, Raw Data (LUM) ([5]; 1st run, plate ABL1_CpdsTitr_Read1, single wells, compound 469 nM): 1542 and 1412 and 1342 and 1622
Luminescence, Raw Data (LUM) ([5]; 1st run, plate ABL1_CpdsTitr_Read1, single wells, compound 938 nM): 1188 and 1448 and 1337 and 1335
Luminescence, Raw Data (LUM) ([5]; 1st run, plate ABL1_CpdsTitr_Read1, single wells, compound 1500 nM): 1805 and 977 and 1232 and 1070
Luminescence, Raw Data (LUM) ([5]; 1st run, plate ABL1_CpdsTitr_Read1, single wells, compound 1875 nM): 1156 and 1302 and 1289 and 1256
Luminescence, Raw Data (LUM) ([5]; 1st run, plate ABL1_CpdsTitr_Read1, single wells, compound 3000 nM): 1327 and 1543 and 1534 and 1388
Luminescence, Raw Data (LUM) ([5]; 1st run, plate ABL1_CpdsTitr_Read1, single wells, compound 3750 nM): 1381 and 1311 and 1134
Luminescence, Raw Data (LUM) ([5]; 1st run, plate ABL1_CpdsTitr_Read1, single wells, compound 7500 nM): 1269 and 1270 and 1321 and 1071
Luminescence, Raw Data (LUM) ([5]; 2nd run, plate ABL1_CpdsTitr2_Read1, single wells, compound 15 nM): 6198 and 6465 and 5917 and 6372
Luminescence, Raw Data (LUM) ([5]; 2nd run, plate ABL1_CpdsTitr2_Read1, single wells, compound 29 nM): 7090 and 6257 and 6692 and 6143
Luminescence, Raw Data (LUM) ([5]; 2nd run, plate ABL1_CpdsTitr2_Read1, single wells, compound 59 nM): 6364 and 6701 and 5655 and 6486
Luminescence, Raw Data (LUM) ([5]; 2nd run, plate ABL1_CpdsTitr2_Read1, single wells, compound 117 nM): 6190 and 6555 and 5494 and 6585
Luminescence, Raw Data (LUM) ([5]; 2nd run, plate ABL1_CpdsTitr2_Read1, single wells, compound 234 nM): 5219 and 5282 and 5107 and 4913
Luminescence, Raw Data (LUM) ([5]; 2nd run, plate ABL1_CpdsTitr2_Read1, single wells, compound 469 nM): 6324 and 5692 and 5791 and 5812
Luminescence, Raw Data (LUM) ([5]; 2nd run, plate ABL1_CpdsTitr2_Read1, single wells, compound 938 nM): 6138 and 6238 and 6011 and 5496
Luminescence, Raw Data (LUM) ([5]; 2nd run, plate ABL1_CpdsTitr2_Read1, single wells, compound 1500 nM): 5294 and 5538 and 5113 and 5062
Luminescence, Raw Data (LUM) ([5]; 2nd run, plate ABL1_CpdsTitr2_Read1, single wells, compound 1875 nM): 6881 and 6876 and 6366 and 6488
Luminescence, Raw Data (LUM) ([5]; 2nd run, plate ABL1_CpdsTitr2_Read1, single wells, compound 3000 nM): 4805 and 5280 and 4474 and 4682
Luminescence, Raw Data (LUM) ([5]; 2nd run, plate ABL1_CpdsTitr2_Read1, single wells, compound 3750 nM): 6509 and 5880 and 6068 and 5810
Luminescence, Raw Data (LUM) ([5]; 2nd run, plate ABL1_CpdsTitr2_Read1, single wells, compound 7500 nM): 6480 and 6469 and 6139 and 5760
Structure (SMILES): Cc1ccc(NC(=O)C23CCC(CN4CCN(C)CC4)(CC2)OC3)cc1Nc1nccc(-c2cccnc2)n1 [Compound 85]
inhibitory effect on the catalytic activity of ABL1 kinase (in words) ([5]; ADP-Glo Kinase Assay, 12 concentration points): did not observe any significant inhibitory effect; also recorded: inactive

solubility kinetic at 2 h ([3]; pH 7.4): 126 µM (≈ 37 µg/mL)
Structure (SMILES): Cc1nccn1CC1CCc2c(c3ccccc3n2C)C1=O (stereo not shown) [Ondansetron, reference compound]

kel (elimination constant) [6]: 0.119 min⁻¹
% Remaining, Mean of 2 ([6]; microsomes, 7 min): 49%
% Remaining without cofactor, Mean of 2 ([6]; microsomes, 40 min): 91%
Structure (SMILES): O=C(O)Cc1ccccc1Nc1c(Cl)cccc1Cl [Diclofenac]

chemical stability in acid ([7]; aq. 1 M HCl, room temperature, 1 h): no decomposition
chemical stability in base ([7]; aq. 1 M NaOH, room temperature, 1 h): no decomposition
thermal stability ([7]; heating at 100 °C for five minutes): remained stable
stability on storage ([7]; in air, room temperature, closed vials, one year, 1H NMR): no changes
pKa [8]: 4.4
Structure (SMILES): CC12CCC(C(=O)O)(CC1)CO2 [Compound 47]
